The record followed here is patent US20240307434A1, “USE OF LUTETIUM SALT COMPOUNDS FOR ANTIVIRAL EFFECT” (priority 2022, published 2024).

This experiment deals with Adenovirus, Poliovirus, Herpes Simplex Type 1 and Herpes Simplex Type 2, Coronavirus and Norovirus strains.

Regarding lutetium Borate [LuBO3], the antiviral efficacy entry is given as “exhibit antiviral efficacy”.
